Test results published in publication PMC4872784 (Oncotarget, 2016).
pIC50: −log10 of the molar value. Values joined by “and” are separate entries in the source; they are usually repeats but may differ in a detail not shown here. Equal values may be shown once. Where a name gives a salt, the structure may show the parent alone. Each block holds one compound with its values, some of them ahead of it.

Legend:
in vivo = settings: male, NSG, mouse, plasma, po, 200 mg/kg
Experimental: (§9) Plasma samples were obtained from 3-6 male NSG mice per time point (15min-24h after drug administration). Symbols represent concentrations of compound by LC/MS-MS detection.
(§10) Blood samples were collected via retro-orbital bleeding into EDTA-coated tubes. PK samples were centrifuged to obtain plasma, which was stored frozen (−80°C) until liquid chromatography/triple quadrupole mass spectrometry (LC/MS-MS) analysis.
(§11) were separated using an Agilent Zorbax Eclipse C18 column (2.1 mm x 50 mm, 3.5 μm) using gradient mobile phase
(§12) (acetonitrile and 2 mM ammonium acetate both containing 0.1% formic acid) and a gradient flow rate (0.2 to 0.4 ml/
(§13) min). An AB Sciex 5500 triple quadrupole mass spectrometer was used for detection. The m/z transitions used were
(§14) The calibration range was 5–1,000 ng/mL for all analytes. Mean drug concentrations were calculated at each time point. PK parameters (plasma
(§15) half-life [T1/2]; time to reach Cmax [Tmax]; maximum plasma concentration [Cmax]; area under the plasma concentration-
(§16) time curve [AUC] from time zero to the last measurable concentration [AUClast]; AUC from time zero to infinity [i.e.,
(§17) the AUClast + the extrapolated AUC from AUClast to infinity; AUC0–∞]; apparent volume of distribution [Vz/F]; body
(§18) weight-adjusted apparent clearance [CL/F/kg]) were calculated from mean drug concentration-time data using non-
(§19) the r2 of the elimination rate constant (λ ) was < 0.9, the AUC , CL/F, and T were not reported (NR).

MOLM14 cells [1] = assay: alamarBlue cytotoxicity assay, 48h; type: cell-based, human; settings: MOLM14 (AML), 48h, RPMI + 10% FBS
Experimental: (§1) Following subtraction of background fluorescence from all wells, fluorescence of drug-treated cells was normalized to that of vehicle (<0.5% DMSO)-treated cells to determine the effect of each drug concentration on viability. Each cell line was tested in triplicate and in at least three independent experiments. IC50 (concentration that inhibits cell growth by 50%) values were calculated using CompuSyn software (ComboSyn, Paramus, NJ). […] In addition several cell lines were initially cultured and tested in alternative media (Supplementary Table S2). […] Colony counts were normalized to vehicle-treated controls (100%). Three independent experiments were performed.
(§2) In most experiments, cytotoxicity was assessed using alamarBlue assays (Life Technologies, Grand Island, NY). In experiments using NAC and DFO, which can interfere with alamarBlue assay performance, Trypan Blue dye exclusion was used instead. […]
(§3) experiments performed in triplicate. […] Age refers to age […]
(§4) at the time of leukemia diagnosis of the patient from whom the cell line was derived. (–) Indicates information unavailable.
(§5) *Cell lines with FLT3/ITD mutations.
(§6) *The MV-4–11 cell line was derived from a patient with a biphenotypic B-myelomonocytic leukemia; K562 was derived […]
(§7) 1A. p53 status was obtained from http://cancer.sanger.ac.uk/cell_lines/cbrowse/all and http://p53.free.fr/Database/Cancer_ cell_lines/Leukemia_cancer. html. WT: wild type. Mut: mutant. SM: single mutation. DM: double mutation. MM: multiple mutations. Fs: Frameshift mutation. Null: protein expression undetectable. […]
(§8) measured via alamarBlue assay. […]

KOPN8 cells = assay: alamarBlue cytotoxicity assay, 48h; type: cell-based, human; settings: RPMI + 10% FBS
Experimental: as §1, §2, §3, §4, §5, §6, §7, §8

[2] = plasma pharmacokinetics after single oral dose; settings: single oral dose AS 200 mg/kg, NSG mice
Experimental: as §9, §10, §11, §12, §13, §14, §15, §16, §17, §18, §19

MOLM14 cells [3] = assay: viable cell counts via Trypan Blue dye exclusion, 48h; type: cell-based, human; settings: read-out: approximate 48h IC50
Experimental: A. Quantification of the percentage of early apoptotic cells (Annexin-V+/7-AAD-) from three independent experiments in which cells were stained for apoptosis with 7-AAD and Annexin-V then analyzed by flow cytometry. […] C. […] 16h after addition of drugs, cells were washed and analyzed by flow cytometry for CM-H2DCFDA fluorescence (indicating total ROS generation) in the FL1 channel. Mean Fluorescence Intensity (MFI) was normalized to that of vehicle control (0.5% DMSO) with no pretreatment. […] Viable cell counts, obtained via Trypan Blue dye exclusion, were normalized to vehicle (0.02% DMSO)-treated samples +/– pretreatment.
In most experiments, cytotoxicity was assessed using alamarBlue assays (Life Technologies, Grand Island, NY). In experiments using NAC and DFO, which can interfere with alamarBlue assay performance, Trypan Blue dye exclusion was used instead.

[4] = Homo sapiens, KOPN-8, KOPN8 (B-ALL)

- AUC(0-inf) (in vivo): 1300 ng·h/mL
- AUC(0-t) (in vivo): 1290 ng·h/mL
- CL/F (in vivo): 2050 mL/min/kg
- Cmax (in vivo): 1630 ng/mL and 5.74 µM
- Tmax (in vivo): 15 min
- Vd/F (in vivo): 103 L/kg
- half-life (in vivo): 34.8 min
- T1/2 ([2]; plasma): < 60 min
- time by which plasma declined to undetectable levels [2]: ≤ 4 h
SMILES: C[C@H]1[C@@H](O)O[C@@H]2O[C@@]3(C)CC[C@H]4[C@H](C)CC[C@@H]1[C@@]24OO3 [DHA, dihydroartemisinin]
- pIC50 (MOLM14 cells [1]; Homo sapiens, MOLM-14): 5.99
- pIC50 (KOPN8 cells; [4]): 6.45

SMILES: C[C@]12O[C@H](C[C@]1(O)CO)n1c3ccccc3c3c4c(c5c6ccccc6n2c5c31)CNC4=O [LES, lestaurtinib]
- pIC50 (MOLM14 cells [1]; Homo sapiens, MOLM-14): 8.52
- pIC50 (KOPN8 cells; [4]): 7.35

SMILES: CNC(=O)c1cc(Oc2ccc(NC(=O)Nc3ccc(Cl)c(C(F)(F)F)c3)cc2)ccn1 [SOR, sorafenib]
- pIC50 (MOLM14 cells [1]; Homo sapiens, MOLM-14): 8.40
- pIC50 (KOPN8 cells; [4]): 5.38

- pIC50 (MOLM14 cells [3]; MOLM14, preliminary experiments): ~4.60
SMILES: CC(=O)N[C@@H](CS)C(=O)O [NAC, N-acetyl cysteine]

SMILES: CO[C@@H]1[C@H](N(C)C(=O)c2ccccc2)C[C@H]2O[C@]1(C)n1c3ccccc3c3c4c(c5c6ccccc6n2c5c31)C(=O)NC4 [MID, midostaurin]
- pIC50 (KOPN8 cells; [4]): 6.68

SMILES: Nc1ccn([C@@H]2O[C@H](CO)[C@@H](O)[C@@H]2O)c(=O)n1 [ARA, cytosine arabinoside]
- pIC50 (MOLM14 cells [1]): 6.54
- pIC50 (KOPN8 cells; KOPN8 (B-ALL)): 7.14

SMILES: COc1cc([C@@H]2c3cc4c(cc3[C@@H](O[C@@H]3O[C@@H]5CO[C@@H](C)O[C@H]5[C@H](O)[C@H]3O)[C@H]3COC(=O)[C@H]23)OCO4)cc(OC)c1O [ETO, etoposide]
- pIC50 (MOLM14 cells [1]; Homo sapiens, MOLM-14): 6.62
- pIC50 (KOPN8 cells; [4]): 6.82

SMILES: COc1cccc2c1C(=O)c1c(O)c3c(c(O)c1C2=O)C[C@@](O)(C(=O)CO)C[C@@H]3O[C@H]1C[C@H](N)[C@H](O)[C@H](C)O1 [DOX, doxorubicin]
- pIC50 (MOLM14 cells [1]; Homo sapiens, MOLM-14): 7.10
- pIC50 (KOPN8 cells; [4]): 7.52

SMILES: CC(=O)N(O)CCCCCNC(=O)CCC(=O)N(O)CCCCCNC(=O)CCC(=O)N(O)CCCCCN [DFO, deferoxamine mesylate]
- pIC50 (MOLM14 cells [3]; Homo sapiens, MOLM-14, 48 h): ~4.96
